The values below come from patent US20250327794A1, “FLUOROMETRIC METHODS FOR DETECTION OF ALLERGIC SENSITIVITY TO ENVIRONMENTAL, FOODSTUFF, AND MEDICAMENT STIMULANTS” (CELL SCIENCE SYSTEMS CORPORATION, priority 2022, published 2025).

For this assay, the system named is eosinophils. The experiment in a line: Eosinophil activation: RH 123 signal in CD193(+)/CD16(-) gated cells. It counts as cell-based, human. From the text: Activation of eosinophils from human blood samples following exposure to exogenous stimulants was investigated using flow cytometry analysis of RH 123 fluorescence, as well as cell surface markers CD16 and CD193, and side scattering profiles. CD193 (CCR3; Chemokine C—C motif receptor 3) is a surface marker expressed in eosinophils and basophils. FIGS. 23A-23C show density plots of CD193 fluorescence signal on channel 3 (FL3-A) for DHR 123 only (FIG. 23A), DHR 123+PMA stimulant (FIG. 23B), and DHR 123+DM stimulant (FIG. 23C) following exposure to stimulant for 1.5 hours. FIGS. 23D-23F show corresponding gated RH 123 results (MFI=32944, MFI=70320, and MFI=28522, respectively). FIGS. 24A-24C show density plots of CD193 fluorescent signals at channel 3 (FL3-A) for DHR 123 only (FIG. 24A), DHR 123+DM stimulant (FIG. 24B), and DHR 123+RWP stimulant (FIG. 24C) following exposure to stimulant for 2.5 hours. FIGS. 24D-24F show corresponding gated RH 123 results (FIG. 24D, DHR 123 only: MFI=10156; FIG. 24E, DHR 123+DM stimulant: MFI=19911, and […], DHR 123+RWP stimulant: MFI=17210).
Eosinophil population was selected using CD193(+) and CD16(−) expression profiles (shown in FIGS. 23A-23C and […] as encircled). Eosinophil population was reduced in PMA stimulant, DM stimulant and RWP stimulant exposed groups. In addition, DHR 123 signals in gated eosinophils was higher than DHR 123 only control group after 2.5-hour incubation. Thus, it was concluded that eosinophils are activated by dust mite and ragweed pollen stimulants according to this method.

Regarding `CCCCCCCCCCCCCC(=O)O[C@@H]1[C@@H](C)[C@@]2(O)[C@@H](C=C(CO)C[C@]3(O)C(=O)C(C)=C[C@@H]23)[C@@H]2C(C)(C)[C@]12OC(C)=O` [PMA, Phorbol-12-Myristate-13-Acetate], under “1-3 hr incubation, DHR 123 and PMA”, the “CD193 signal over incubation time” value is listed as “decreased”. For the same molecule, the “gated RH 123 signal MFI, CD193 gated” value (1.5 hours exposure, DHR 123 only control MFI=32944) came out at 70320. Also, the “eosinophil population (in words)” value (CD193(+) and CD16(−) population in stimulant exposed groups) is given as “reduced”.
